Like-named read-outs stand apart in the source and are kept apart here.
How the values were obtained:
[1] = target: T1, Recombinant STAT3 protein (STAT3 (G127-I722)) (Homo sapiens, UniProt P40763); test: STAT3 Fluorescence Polarization (FP) Assay; type: binding; conditions: probe 5-FAM-GpYLPQTV-NH2 2 nM, 45-minute incubation
T1 construct: Recombinant STAT3 protein (STAT3 (G127-I722))
Method in brief: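 In this competition FP format, STAT3 residues G127-I722 (25 nM) and 2 nM 5-FAM-GpYLPQTV-NH2 met test compounds for 45 min at room temperature. IC50 values result from fitting mP signal against log concentration by nonlinear regression.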

[2] = target: T2, Recombinant STAT6 protein (STAT6 (W123-T658)) (Homo sapiens, UniProt P42226); test: STAT6 Fluorescence Polarization (FP) Assay; type: binding; conditions: probe 5-FAM-Ap[…]-NH2 2 nM, 45-minute incubation
T2 construct: Recombinant STAT6 protein (STAT6 (W123-T658))
T2 sequence (P42226 123-658): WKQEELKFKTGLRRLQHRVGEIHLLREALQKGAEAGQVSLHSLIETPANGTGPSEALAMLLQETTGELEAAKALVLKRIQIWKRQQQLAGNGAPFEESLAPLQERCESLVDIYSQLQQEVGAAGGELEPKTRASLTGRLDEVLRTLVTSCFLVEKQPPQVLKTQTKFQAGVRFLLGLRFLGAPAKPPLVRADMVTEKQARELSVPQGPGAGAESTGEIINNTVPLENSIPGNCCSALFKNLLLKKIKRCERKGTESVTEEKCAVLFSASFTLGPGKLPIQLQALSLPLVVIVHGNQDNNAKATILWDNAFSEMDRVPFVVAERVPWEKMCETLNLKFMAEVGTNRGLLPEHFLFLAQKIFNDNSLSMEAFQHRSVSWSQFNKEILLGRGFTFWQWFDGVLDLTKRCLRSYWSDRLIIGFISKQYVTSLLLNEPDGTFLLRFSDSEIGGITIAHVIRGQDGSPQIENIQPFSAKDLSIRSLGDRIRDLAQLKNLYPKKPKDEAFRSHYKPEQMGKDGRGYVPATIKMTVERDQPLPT
Method in brief: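 Fluorescence polarization (mP) read-out: 250 nM STAT6 (W123-T658) plus 2 nM 5-FAM phosphotyrosine peptide, 45 min, room temperature, 1% DMSO. IC50 by nonlinear fit of mP against log compound concentration.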

[3] = STAT3 (G127-I722) 25 nM, read-out: STAT3 (FP assay IC50 class)
[4] = STAT6 (W123-T658) 250 nM, read-out: STAT6 (FP assay IC50 class)
[5] = STAT3 25 nM, read-out: STAT3 (FP assay IC50)
[6] = STAT6 250 nM, read-out: STAT6 (FP assay IC50)

T1 sequence (P40763 127-722): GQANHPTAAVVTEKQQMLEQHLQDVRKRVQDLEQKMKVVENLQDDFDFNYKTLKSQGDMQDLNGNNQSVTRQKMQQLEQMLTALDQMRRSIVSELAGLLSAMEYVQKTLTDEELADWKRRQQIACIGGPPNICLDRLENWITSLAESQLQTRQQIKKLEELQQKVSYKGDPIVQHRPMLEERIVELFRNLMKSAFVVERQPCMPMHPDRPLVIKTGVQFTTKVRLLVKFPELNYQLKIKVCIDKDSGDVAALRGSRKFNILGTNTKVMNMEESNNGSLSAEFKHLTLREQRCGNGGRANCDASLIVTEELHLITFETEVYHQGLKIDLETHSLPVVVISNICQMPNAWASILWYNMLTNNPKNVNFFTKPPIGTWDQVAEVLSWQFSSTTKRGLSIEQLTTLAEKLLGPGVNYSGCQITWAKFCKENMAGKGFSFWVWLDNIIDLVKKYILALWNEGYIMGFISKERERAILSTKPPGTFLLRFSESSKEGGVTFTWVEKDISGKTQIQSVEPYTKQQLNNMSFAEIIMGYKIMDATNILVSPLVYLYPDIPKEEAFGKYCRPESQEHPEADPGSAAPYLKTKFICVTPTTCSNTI

SMILES	IC50 [1, 3]	IC50 [2, 4]	IC50 [1, 5]	IC50 [2, 6]
O=C(N[C@H]1CCC[C@H]2CC[C@@H](C(=O)Nc3ccc(-c4ccccc4)cc3)N2C1=O)c1ccc2ccc(C(F)(F)P(=O)(O)O)cc2c1 [Compound 29, ((7-(((3S,6S,9aS)-3-([1,1′-biphenyl]-4-ylcarbamoyl)-5-oxooctahydro-1H-pyrrolo[1,2-a]azepin-6-yl)carbamoyl)naphthalen-2-yl)difluoromethyl) phosphonic acid]	–	–	100 to 1000 nM	3000 to 30000 nM
COC1(c2cnccc2C)CN(C(=O)[C@@H]2CC[C@@H]3CCCC[C@H](NC(=O)c4cc5cc(C(F)(F)P(=O)(O)O)ccc5s4)C(=O)N32)C1 [Compound 501, (difluoro(2-(((3S,6S,10aS)-3-(3-methoxy-3-(4-methylpyridin-3-yl)azetidine-1-carbonyl)-5-oxodecahydropyrrolo[1,2-a]azocin-6-yl)carbamoyl)benzo[b]thiophen-5-yl)methyl)phosphonic acid]	100 to 1000 nM	3000 to 30000 nM	–	–
O=C(N[C@H]1CCC[C@H]2CC[C@@H](C(=O)N3CC(c4ncncc4F)C3)N2C1=O)c1cc2cc(C(F)P(=O)(O)O)ccc2s1 (stereo partly drawn) [Compound 583, (fluoro(2-(((3S,6S,9aS)-3-(3-(5-fluoropyrimidin-4-yl)azetidine-1-carbonyl)-5-oxooctahydro-1H-pyrrolo[1,2-a]azepin-6-yl)carbamoyl)benzo[b]thiophen-5-yl)methyl)phosphonic acid]	100 to 1000 nM	3000 to 30000 nM	–	–
O=C(N[C@H]1CCCC[C@H]2CC[C@@H](C(=O)N3CCC(c4ccccn4)CC3)N2C1=O)c1cc2cc(C(F)P(=O)(O)O)ccc2s1 (stereo partly drawn) [Compound 579, (fluoro(2-(((3S,6S,10aS)-5-oxo-3-(4-(pyridin-2-yl)piperidine-1-carbonyl)decahydropyrrolo[1,2-a]azocin-6-yl)carbamoyl)benzo[b]thiophen-5-yl)methyl)phosphonic acid]	100 to 1000 nM	3000 to 30000 nM	–	–
O=C(N[C@H]1CCCC[C@H]2CC[C@@H](C(=O)N3CCC(c4cccnc4)C3)N2C1=O)c1cc2cc(C(F)P(=O)(O)O)ccc2s1 (stereo partly drawn) [Compound 223, (fluoro(2-(((3S,6S,10aS)-5-oxo-3-(3-(pyridin-3-yl)pyrrolidine-1-carbonyl)decahydropyrrolo[1,2-a]azocin-6-yl)carbamoyl)benzo[b]thiophen-5-yl)methyl)phosphonic acid]	100 to 1000 nM	300 to 3000 nM	–	–
N#C[C@@H]1CN(C(=O)[C@@H]2CC[C@@H]3CCCC[C@H](NC(=O)c4ccc5ccc(C(F)(F)P(=O)(O)O)cc5c4)C(=O)N32)C[C@H]1c1cc[nH]c(=O)c1 (relative stereo) [Compound 83, ((7-(((3S,6S,10aS)-3-(rel-(trans)-3-cyano-4-(2-oxo-1,2-dihydropyridin-4-yl)pyrrolidine-1-carbonyl)-5-oxodecahydropyrrolo [1,2-a]azocin-6-yl)carbamoyl)naphthalen-2-yl)difluoromethyl) phosphonic acid]	–	–	100 to 1000 nM	≤ 300 nM
O=C(N[C@H]1CCC[C@H]2CC[C@@H](C(=O)N3CCC(c4n[nH]cc4F)CC3)N2C1=O)c1cc2cc(C(F)P(=O)(O)O)ccc2s1 (stereo partly drawn) [Compound 591, (fluoro(2-(((3S,6S,9aS)-3-(4-(4-fluoro-1H-pyrazol-3-yl)piperidine-1-carbonyl)-5-oxooctahydro-1H-pyrrolo[1,2-a]azepin-6-yl)carbamoyl)benzo[b]thiophen-5-yl)methyl)phosphonic acid]	1000 to 10000 nM	3000 to 30000 nM	–	–
O=C(N[C@H]1CCC[C@H]2CC[C@@H](C(=O)N3CC(c4cc(O)ccn4)C3)N2C1=O)c1cc2cc(CP(=O)(O)O)ccc2s1 [Compound 543, ((2-(((3S,6S,9aS)-3-(3-(4-hydroxypyridin-2-yl)azetidine-1-carbonyl)-5-oxooctahydro-1H-pyrrolo[1,2-a]azepin-6-yl)carbamoyl)benzo[b]thiophen-5-yl)methyl)phosphonic acid]	1000 to 10000 nM	3000 to 30000 nM	–	–

Results, then the molecule that gave them:

IC50 [1, 3]	IC50 [2, 4]	IC50 [1, 5]	IC50 [2, 6]	SMILES
100 to 1000 nM	3000 to 30000 nM	–	–	COc1cc(C2CN(C(=O)[C@@H]3CC[C@@H]4CCC[C@H](NC(=O)c5cc6cc([C@@H](F)P(=O)(O)O)ccc6s5)C(=O)N43)C2)ccn1 (single isomer, unassigned) [Compound 702]
100 to 1000 nM	300 to 3000 nM	–	–	O=C(N[C@H]1CCC[C@H]2CC[C@@H](C(=O)N3CC(n4ccc(=O)nc4)C3)N2C1=O)c1cc2cc(C(F)P(=O)(O)O)ccc2s1 (stereo partly drawn) [Compound 620, (fluoro(2-(((3S,6S,9aS)-5-oxo-3-(3-(4-oxopyrimidin-1(4H)-yl)azetidine-1-carbonyl)octahydro-1H-pyrrolo[1,2-a]azepin-6-yl)carbamoyl)benzo [b]thiophen-5-yl)methyl) phosphonic acid]
< 100 nM	3000 to 30000 nM	–	–	O=C(N[C@H]1CCC[C@H]2CC[C@@H](C(=O)N3CC(c4cnccc4N4CC(C(F)(F)F)C4)C3)N2C1=O)c1cc2cc(CP(=O)(O)O)ccc2s1 [Compound 692, ((2-(((3S,6S,9aS)-5-oxo-3-(3-(4-(3-(trifluoromethyl)azetidin-1-yl)pyridin-3-yl)azetidine-1-carbonyl)octahydro-1H-pyrrolo[1,2-a]azepin-6-yl)carbamoyl)benzo [b]thiophen-5-yl)methyl) phosphonic acid]
1000 to 10000 nM	300 to 3000 nM	–	–	COc1cncc([C@H]2CN(C(=O)[C@@H]3CC[C@@H]4CCC[C@H](NC(=O)c5cc6cc([C@@H](F)P(=O)(O)O)ccc6s5)C(=O)N43)C3(CC3)[C@@H]2C#N)c1 (single isomer, unassigned) [Compound 844]
< 100 nM	3000 to 30000 nM	–	–	Cc1ccncc1C1CN(C(=O)[C@@H]2CC[C@@H]3C[C@H](C)C[C@H](NC(=O)c4cc5cc([C@H](F)P(=O)(O)O)ccc5s4)C(=O)N32)C1 (single isomer, unassigned) [Compound 740]
< 100 nM	3000 to 30000 nM	–	–	CCOc1ccncc1C1CN(C(=O)[C@@H]2CC[C@@H]3CCC[C@H](NC(=O)c4cc5cc([C@@H](F)P(=O)(O)O)ccc5s4)C(=O)N32)C1 (single isomer, unassigned) [Compound 771]
1000 to 10000 nM	300 to 3000 nM	–	–	O=C(N[C@H]1CCCC[C@H]2CC[C@@H](C(=O)N3C[C@@H](c4cc[nH]c(=O)c4)CC34CC4)N2C1=O)c1ccc2ccc(CP(=O)(O)O)cc2c1 [Compound 883, ((7-(((3S,6S,10aS)-5-oxo-3-((R)-6-(2-oxo-1,2-dihydropyridin-4-yl)-4-azaspiro[2.4]heptane-4-carbonyl)decahydropyrrolo[1,2-a]azocin-6-yl)carbamoyl)naphthalen-2-yl)methyl) phosphonic acid]
100 to 1000 nM	3000 to 30000 nM	–	–	Cc1ccncc1C1CN(C(=O)[C@@H]2CC[C@@H]3C[C@H](C)CC[C@H](NC(=O)c4cc5cc(CP(=O)(O)O)ccc5s4)C(=O)N32)C1 [Compound 656, ((2-(((3S,6S,9R,10aR)-9-methyl-3-(3-(4-methylpyridin-3-yl)azetidine-1-carbonyl)-5-oxodecahydropyrrolo [1,2-a]azocin-6-yl)carbamoyl)benzo [b]thiophen-5-yl)methyl) phosphonic acid]
100 to 1000 nM	3000 to 30000 nM	–	–	O=C(N[C@H]1CCCC[C@H]2CC[C@@H](C(=O)N3Cc4cccnc4C3)N2C1=O)c1cc2cc(C(F)(F)P(=O)(O)O)ccc2s1 [Compound 801, ((2-(((3S,6S,10aS)-3-(6,7-dihydro-5H-pyrrolo[3,4-b]pyridine-6-carbonyl)-5-oxodecahydropyrrolo [1,2-a]azocin-6-yl)carbamoyl)benzo [b]thiophen-5-yl)difluoromethyl) phosphonic acid]
< 100 nM	300 to 3000 nM	–	–	O=C(N[C@H]1CCCC[C@H]2CC[C@@H](C(=O)N3CC(c4ccc[nH]c4=O)C3)N2C1=O)c1cc2cc(C(F)(F)P(=O)(O)O)ccc2s1 [Compound 803, (difluoro(2-(((3S,6S,10aS)-5-oxo-3-(3-(2-oxo-1,2-dihydropyridin-3-yl)azetidine-1-carbonyl)decahydropyrrolo[1,2-a]azocin-6-yl)carbamoyl)benzo [b]thiophen-5-yl)methyl) phosphonic acid]
1000 to 10000 nM	300 to 3000 nM	–	–	CC1(C)C[C@@H](c2ccccc2)CN1C(=O)[C@@H]1CC[C@@H]2CCCC[C@H](NC(=O)c3cc4cc(C(F)(F)P(=O)(O)O)ccc4s3)C(=O)N21 [Compound 814, ((2-(((3S,6S,10aS)-3-((S)-2,2-dimethyl-4-phenylpyrrolidine-1-carbonyl)-5-oxodecahydropyrrolo [1,2-a]azocin-6-yl)carbamoyl)benzo [b]thiophen-5-yl)difluoromethyl) phosphonic acid]

From patent US20250215029A1 (Recludix Pharma, Inc., priority 2022, published 2025)
